We go through one compound from the NIST ThermoML archive (doi:10.1016/j.fluid.2019.06.004).

Data set [1] can be described thus: Molar enthalpy of transition or fusion. The note with it: DSC.

Numbers after ± are expanded uncertainties.

Turning to `NC(=O)c1cnccn1` [pyrazinecarboxamide], under “Crystal”, the Normal melting temperature is 188.96 ± 2.2 °C. Also, the Triple point temperature (Crystal 2, DSC) is on record as 421.11 ± 1.2 K. Also, the results for the “Molar enthalpy of transition or fusion” value in data set [1] (Crystal 2) and in data set [1] (Crystal) were 0.363 ± 0.043 kcal/mol and 6.09 ± 0.502 kcal/mol, respectively.
